Results taken from patent publication US8003081B2, “Method for improvement of tolerance for therapeutically effective agents delivered by inhalation” (priority 2004, dated 2011).
Read-outs that look alike come from different tables or passages of the source.

Assays:
[1] = system: mild to moderate asthma patients; settings: placebo=0.35
[2] = 100 mg in 2.5 ml of 40 mg/ml solution, PARI LC PLUS nebulizer; cited from earlier work
[3] = Shelf-life and storage stability of lidocaine formulations; type: physicochemical

CCN(CC)CC(=O)Nc1c(C)cccc1C [lidocaine, acetamide 2-(diethylamino)-N-(2,6-dimethylphenyl)]
AQLQ environmental domain, mean change at week 12 from baseline ([1]; 10 mg lidocaine, p=0.012 v. placebo): 2.09 | AQLQ environmental domain, mean change at week 12 from baseline ([1]; 40 mg lidocaine, p=0.01 v. placebo): 2.45 | duration of oral numbing of lips, tongue and mucosa with impaired gag reflex following inhalation [2]: approximately 15 minutes | stable without loss of strength ([3]; 1%, 4% or 10% solution in Blow-Fill-Seal vials with overwrap, room temperature): 9-12 months | shelf-life of the dry form ([3]; dry form): at least 2 years
